Results published in patent publication US8436028B2, “CETP inhibitors derived from benzoxazole arylamides” (Merck Sharp & Dohme Corp, priority 2007, dated 2013).

target: T1, recombinant human CETP (Homo sapiens, UniProt P11597); assay: CETP assay, CE transfer reaction (BODIPY-CE fluorescence, continuous); assay type: biochemical; conditions: 3% human serum, 25° C., read-out: IC50 value as measured for the CE transfer reaction
T1 construct: made in house; host or cells: CHO cells
T1 sequence (P11597 18-493): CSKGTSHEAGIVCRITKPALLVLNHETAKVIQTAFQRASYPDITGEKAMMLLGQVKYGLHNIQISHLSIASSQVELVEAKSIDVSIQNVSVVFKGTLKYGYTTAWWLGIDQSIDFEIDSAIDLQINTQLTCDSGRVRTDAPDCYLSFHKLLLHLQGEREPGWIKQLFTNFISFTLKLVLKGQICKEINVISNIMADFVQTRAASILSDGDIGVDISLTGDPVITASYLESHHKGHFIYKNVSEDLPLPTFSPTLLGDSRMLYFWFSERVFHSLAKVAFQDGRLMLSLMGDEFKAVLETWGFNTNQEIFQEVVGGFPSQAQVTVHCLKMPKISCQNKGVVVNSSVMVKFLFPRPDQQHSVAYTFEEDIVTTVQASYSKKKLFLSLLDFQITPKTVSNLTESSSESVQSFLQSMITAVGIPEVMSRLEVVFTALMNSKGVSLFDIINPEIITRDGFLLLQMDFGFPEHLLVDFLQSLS
Description: An in vitro continuous assay for determining IC50's to identify compounds that are CETP inhibitors was performed based on a modification of the method described by Epps et al. employing BODIPY®-CE as the cholesteryl ester lipid donor and BODIPY®-TG as the triglyceride lipid donor. See Epps et al. (1995) Method for measuring the activities of cholesteryl ester transfer protein (lipid transfer protein), Chem. Phys. Lipids. 77, 51-63.
Particles used in the assay were created from the following materials by probe sonication essentially as described by Epps et al. Synthetic cholesteryl ester (CE) donor HDL particles contained DOPC (Dioleoyl Phosphatidyl Choline), BODIPY®-CE (Molecular Probes C-3927), triolein (a triglyceride), dabcyl dicetylamide, (a non-diffusable quencher molecule to reduce background fluorescence) and apoHDL. Synthetic triglyceride (TG) donor HDL particles contained DOPC, BODIPY®-TG, and apoHDL. BODIPY®-TG was synthesized at room temperature from diolein and the BODIPY containing fatty acid analog 4,4-difluoro-5-(2-thienyl)-4-bora-3a,4a-diaza-s-indacene-3-dodecanoic acid (Molecular Probes) in methylene chloride in the presence of dicyclohexyl carbodimide. Dabcyl dicetylamide was made by heating dabcyl n-succinimide with dicetylamine in DMF at 95° C. overnight in the presence of diisopropylamine catalyst. Native lipoproteins from human blood were used as acceptor particles. Particles having a density less than 1.063 g/ml were collected by ultracentrifugation. These particles include VLDL, IDL, and LDL. Particle concentrations were expressed in terms of protein concentration as determined by BCA assay (Pierce, USA). Particles were stored at 4° C. until use.
Assays were performed in Dynex Microfluor 2 U-bottom black 96-well plates (Cat #7205). An assay cocktail containing CETP, 1×CETP buffer (50 mM Tris, pH 7.4, 100 mM NaCl, 1 mM EDTA), 3% human serum, and half the final concentration of acceptor particles was prepared, and 100 μL of the assay cocktail was added to each well of the plate. Test compounds in DMSO were added in a volume of […]. The plate was mixed on a plate shaker and then incubated at 25° C. for 1 hour. A second assay cocktail containing donor particles, the remaining acceptor particles and 1×CETP buffer was prepared. 47 μL of the second assay cocktail was added to the reaction wells to start the assay. Assays were performed in a final volume of 150 μL. CE transfer reactions were performed as follows: final concentrations of materials were: 2.5 ng/μL CE donor particles, 7.5 ng/μL acceptor particles (each expressed by protein content), 1×CETP buffer, 14-30 nM recombinant human CETP (expressed in CHO cells and partially purified), and up to 2% DMSO when testing compounds; reactions were followed in a fluorescence plate reader (Molecular Devices Spectramax GeminiXS) set for a 45 minute kinetic run at 25° C. which read the samples every 45 sec at Ex=480 nm, Em=511 nm, with a cutoff filter at 495 nm, photomultiplier tube setting of medium, calibration on, and 6 reads/well. TG transfer reactions were performed as described above with the exception that 2.5 ng/uL TG donor particles were used. TG transfer was measured at an excitation wavelength of 538 nm while reading emission at 568 nm every 45 sec for 45 min at 37° C. with a cutoff filter at 550 nm.
Data were evaluated by obtaining an initial rate, expressed in relative fluorescence units per second, for the pseudolinear portion of the curve, often 0-500 or 1000 sec. Comparison of the rates of samples with inhibitors to an uninhibited (DMSO only) positive control yielded a percent inhibition. A plot of percent inhibition vs. log of inhibitor concentration, fit to a Sigmoidal 4 parameter equation was used to calculate […].

IC50, 12 to 41 nM:
CC(C)c1cc(C#N)cc2nc(-c3ccc(C(=O)NC[C@H]4CC[C@H](CC(=O)Nc5cc(C(F)(F)F)ccn5)CC4)cc3)oc12 [Example 44, 4-(5-Cyano-7-isopropyl-1,3-benzoxazol-2-yl)-N-{[trans-4-(2-oxo-2-{[4-(trifluoromethyl)pyridin-2-yl]amino}ethyl)cyclohexyl]methyl}benzamide]
CC(C)c1cc(C#N)cc2nc(-c3ccc(C(=O)NC[C@H]4CC[C@H](CCOC(C)(C(F)(F)F)C(F)(F)F)CC4)cc3)oc12 [Example 45, 4-(5-Cyano-7-isopropyl-1,3-benzoxazol-2-yl)-N-[(trans-4-{2-[2,2,2-trifluoro-1-methyl-1-(trifluoromethyl)ethoxy]ethyl}cyclohexyl)methyl]benzamide]
CC(C)c1cc(C#N)cc2nc(-c3ccc(C(=O)NCC4CC=C(Cc5ccc(C(F)(F)F)cc5)CC4)cc3)oc12 (stereo not shown) [Example 47, 4-(5-Cyano-7-isopropyl-1,3-benzoxazol-2-yl)-N-({4-[4-(trifluoromethyl)benzyl]cyclohex-3-en-1-yl}methyl)benzamide]
CC(C)c1cc(C#N)cc2nc(-c3ccc(C(=O)NCC4(c5ccccc5)CCCCC4)cc3)oc12 [Example 48]
CC(C)c1cc(C#N)cc2nc(-c3ccc(C(=O)NC[C@H]4CC[C@H](c5ccc(C(F)(F)F)cc5)CC4)cc3)oc12 [Example 53]
CC(C)c1cc(C#N)cc2nc(-c3ccc(C(=O)NC[C@H]4CC[C@@H](c5ccc(C(C)(C)C)cc5)CC4)cc3)oc12 [Example 64]
CC(C)c1cc(C#N)cc2nc(-c3ccc(C(=O)NC[C@H]4CC[C@H](c5ccc(C(C)(C)C)cc5)CC4)cc3)oc12 [Example 65]
Cc1ccc2c(c1)cc(C1=CCC(CNC(=O)c3ccc(-c4nc5cc(C#N)cc(C(C)C)c5o4)cc3)CC1)n2C(=O)OC(C)(C)C (stereo not shown) [Example 76]
CC(C)c1cc(C#N)cc2nc(-c3ccc(C(=O)NC[C@H]4CC[C@H](c5cc6ccccc6n5C)CC4)cc3)oc12 [Example 81]
CC(C)c1cc(C#N)cc2nc(-c3ccc(C(=O)NC[C@H]4CC[C@H](c5cc6ccccc6o5)CC4)cc3)oc12 [Example 82]
